In US9920053B2, “N-(hetero)aryl-substituted heteroyclic derivatives useful for the treatment of diseases or conditions related to the central nervous system” (CHRONOS THERAPEUTICS LIMITED, priority 2014, dated 2018):

How the values were obtained:
[1] = target: human ERG potassium channel (hERG) (Homo sapiens (Human), UniProt Q12809); test: hERG channel tail current recording using Rapid ICE automated patch-clamp; assay type: cell-based; conditions: HEK293 cells stably transfected with hERG
Description: The potency of the compounds of the invention in inhibiting human ERG potassium channel (hERG) tail current is assessed in a recombinant HEK293 cell line stably transfected with hERG cDNA using Rapid ICE™ (Rapid Ion Channel Electrophysiology) assay. Rapid ICE™ is an automated patch-clamp assay utilizing the PatchXpress 7000A system (Molecular Devices Corporation) or the QPatch HTX system (Sophion Bioscience A/S).
Briefly cells are cultivated for 24 to 72 hours before recordings in minimum essential medium supplemented with 10% FBS, 1% non-essential amino acids, 1% sodium pyruvate, 2 mM L-glutamine. The day of the experiment cells are detached with TrypLE and prepared to be loaded on the instrument. For PatchXpress cells are finally resuspended in 150 μl of Extracellular Buffer whereas for QPatch cells are resuspended in 7 ml Serum-Free Media containing 25 mM Hepes and Soybean trypsin inhibitor and immediately placed in the cell storage tank of the machine. The composition of the Extracellular Buffer is (mM): NaCl 137; KCl 4; CaCl2 1.8; MgCl2 1.0; D-glucose 10; N 2 hydroxyethylpiperazine-N′-2-ethanesulfonic acid (HEPES) 10; pH 7.4 with 1 M NaOH. The composition of the pipette solution is (mM): KCl 130; MgCl2 1.0; Ethylene glycol-bis(β-aminoethyl ether)-N,N,N′,N′-tetraacetic acid (EGTA) 5; MgATP 5; HEPES 10; pH 7.2 with 1 M KOH. The voltage protocol includes the following steps: step from −80 mV to −50 mV for 200 ms, +20 mV for 4.8 s, step to −50 mV for 5 s then step to the holding potential of −80 mV. Compounds of the invention are dissolved in DMSO and diluted in Extracellular Buffer to achieve final test concentrations (0.1, 1 and 10 μM) in 0.1% DMSO. The voltage protocol is run and recorded continuously during the experiment. The vehicle, corresponding to 0.1% DMSO in Extracellular Buffer, is then applied for 3 min followed by the test substance in triplicate. The standard combined exposure time is 5 min. The average of tail current amplitude values recorded from 4 sequential voltage pulses is used to calculate for each cell the effect of the test substance by calculating the residual current (% control) compared with vehicle pre-treatment. Data are reported as % inhibition for each concentration tested and IC50 values are estimated using DataXpress or QPatch software. At least two cells are tested, more if results diverge.

[2] = target: human serotonin transporter (SERT) (Homo sapiens (Human), UniProt P31645); test: Scintillation Proximity Assay (SPA) for human SERT binding ([3H]citalopram); conditions: recombinant human SERT, CHO membranes
human serotonin transporter (SERT), sequence (P31645 whole entry): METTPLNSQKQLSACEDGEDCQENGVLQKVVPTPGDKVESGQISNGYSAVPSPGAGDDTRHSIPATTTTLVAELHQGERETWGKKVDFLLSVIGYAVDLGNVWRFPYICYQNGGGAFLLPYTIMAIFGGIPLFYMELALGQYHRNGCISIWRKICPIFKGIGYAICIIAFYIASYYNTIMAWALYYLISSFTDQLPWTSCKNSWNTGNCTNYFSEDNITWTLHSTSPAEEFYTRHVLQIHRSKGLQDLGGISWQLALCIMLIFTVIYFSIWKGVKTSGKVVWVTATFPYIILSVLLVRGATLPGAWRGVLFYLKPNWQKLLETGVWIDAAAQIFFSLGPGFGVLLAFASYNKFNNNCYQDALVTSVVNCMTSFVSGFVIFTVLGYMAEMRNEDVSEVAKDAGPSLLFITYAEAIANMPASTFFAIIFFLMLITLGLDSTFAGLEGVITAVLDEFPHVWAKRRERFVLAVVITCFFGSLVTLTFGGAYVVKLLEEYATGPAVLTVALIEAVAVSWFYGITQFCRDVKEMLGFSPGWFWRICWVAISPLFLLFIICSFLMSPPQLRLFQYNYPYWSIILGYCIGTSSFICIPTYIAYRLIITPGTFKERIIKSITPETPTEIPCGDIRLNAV
Excerpt: (§1) Affinity is expressed in terms of inhibition constant (Ki) of the compounds of the invention for DAT, NET and SERT, and it is typically calculated from the IC50 values obtained in competition experiments using Cheng and Prusoff equation (Cheng and Prusoff, Biochem. Pharmacol. 22:3099, 1973). In the context of the present invention pKi values (corresponding to the antilogarithm of Ki) are used instead of Ki; pKi are only estimated to be accurate to about 0.3 log unit.
(§2) Chinese Hamster Ovary (CHO) cells stably expressing either human DAT (hDAT-CHO) or human NET (hNET-CHO) or human SERT (hSERT-CHO) are used for the membrane preparations for radioligand binding assays using Scintillation proximity Assay (SPA) technique. Each cell line is cultured independently in F-12K Nutrient Mixture containing 10% of Fetal Bovine Serum (FBS) supplemented with 450 μg/ml G-418. When cells are at 70-80% of confluence 3 mM Na Butyrate was added to the cell culture medium. After 24 h of incubation, the culture medium was removed and the cells detached with Versene (DAT) or by scraping (NET and SERT). Cell suspension is centrifuged at 41,000 g for 10 minutes at 4° C. The resultant pellets are re-suspended in 15 volumes of Ice-cold buffer (20 mM HEPES, 145 mM NaCl, 5 mM KCl, pH7.3), homogenized using an Ultra Turrax homogeniser and centrifuged as before. The resultant membrane pellets are re-suspended in up to 15 volume of ice-cold buffer, incubated for 20 minutes at 37° C and centrifuged as before at 41,000 g. The final membrane pellets are re-suspended into 5-10 volumes of ice-cold buffer, dispensed into 0.5 ml aliquots and stored at −80° C. until use. Protein concentration for each preparation is determined using Bio-Rad Protein Assay Kit.
(§3) The affinity of the compounds of the invention to the human DAT or NET or SERT transporters is assessed by using the [^3H]WIN-35,428 or [^3H]nisoxetine or [^3H]citalopram binding assays in recombinant human DAT, NET and SERT membranes with the SPA technology. The final assay volume is 50 μL in 384 well plates.
(§4) Briefly, 0.5 μL of test compound in neat DMSO or 0.5 μL of DMSO for total binding (TB) or 0.5 μL of indatraline 1 mM (10 μM final concentration) for non specific binding (NSB) are added to the assay plate. 50 μL of the SPA mixture is added to each well, containing: 30 μg/mL or 10 μg/mL or 25 μg/mL DAT, NET, SERT membranes, respectively; 5 nM [^3H]WIN-35,428 or 5 nM [^3H]nisoxetine or 1 nM [^3H]citalopram, for DAT, NET, SERT assay, respectively; 2.5 mg/mL or 1 mg/mL or 4 mg/mL WGA-PVT SPA beads (PerkinElmer RPNQ0001, for DAT, NET, SERT assay, respectively. All components are added to Assay Buffer (20 mM HEPES pH 7.4, 145 mM NaCl, 5 mM KCl, 0.01% Pluronic F-127). 0.02% BSA was used for DAT binding only. Plates are sealed with Topseal A and centrifuged 1 min, 800 rpm. Plates are loaded into a 1450 Microbeta TriLux (Perkin-Elmer) plate reader and the radioactivity counted after at least 4 hrs or overnight incubation at room temperature. Curve fitting and IC50 estimations are performed using a four parameter model in XLfit (IDBS, Guilford, UK) for Microdoft Excel (Microsoft, Redmond, Wash.).

[3] = target: human norepinephrine transporter (NET) (Homo sapiens (Human), UniProt P23975); test: Scintillation Proximity Assay (SPA) for human NET binding ([3H]nisoxetine); conditions: recombinant human NET, CHO membranes
human norepinephrine transporter (NET), sequence (P23975 whole entry): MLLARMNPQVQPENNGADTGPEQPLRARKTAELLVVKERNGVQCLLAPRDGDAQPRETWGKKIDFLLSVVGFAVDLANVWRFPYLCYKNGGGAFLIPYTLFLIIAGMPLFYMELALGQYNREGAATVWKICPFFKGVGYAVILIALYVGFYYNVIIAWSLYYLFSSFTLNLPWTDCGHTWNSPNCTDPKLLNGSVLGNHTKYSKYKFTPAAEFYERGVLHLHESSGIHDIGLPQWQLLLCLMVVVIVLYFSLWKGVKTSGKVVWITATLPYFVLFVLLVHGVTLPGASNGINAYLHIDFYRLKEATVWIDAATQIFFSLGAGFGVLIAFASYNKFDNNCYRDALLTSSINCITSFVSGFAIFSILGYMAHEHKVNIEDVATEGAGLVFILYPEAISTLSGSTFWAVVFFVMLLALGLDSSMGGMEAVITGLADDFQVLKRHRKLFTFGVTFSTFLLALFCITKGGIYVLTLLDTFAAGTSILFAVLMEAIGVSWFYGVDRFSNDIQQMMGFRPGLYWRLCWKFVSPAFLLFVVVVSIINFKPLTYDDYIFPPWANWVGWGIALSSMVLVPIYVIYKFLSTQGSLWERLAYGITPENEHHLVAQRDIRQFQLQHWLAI
Excerpt: as §1, §2, §3, §4

[4] = target: human dopamine transporter (DAT) (Homo sapiens (Human), UniProt Q01959); test: Scintillation Proximity Assay (SPA) for human DAT binding ([3H]WIN-35,428); conditions: recombinant human DAT, CHO
human dopamine transporter (DAT), sequence (Q01959 whole entry): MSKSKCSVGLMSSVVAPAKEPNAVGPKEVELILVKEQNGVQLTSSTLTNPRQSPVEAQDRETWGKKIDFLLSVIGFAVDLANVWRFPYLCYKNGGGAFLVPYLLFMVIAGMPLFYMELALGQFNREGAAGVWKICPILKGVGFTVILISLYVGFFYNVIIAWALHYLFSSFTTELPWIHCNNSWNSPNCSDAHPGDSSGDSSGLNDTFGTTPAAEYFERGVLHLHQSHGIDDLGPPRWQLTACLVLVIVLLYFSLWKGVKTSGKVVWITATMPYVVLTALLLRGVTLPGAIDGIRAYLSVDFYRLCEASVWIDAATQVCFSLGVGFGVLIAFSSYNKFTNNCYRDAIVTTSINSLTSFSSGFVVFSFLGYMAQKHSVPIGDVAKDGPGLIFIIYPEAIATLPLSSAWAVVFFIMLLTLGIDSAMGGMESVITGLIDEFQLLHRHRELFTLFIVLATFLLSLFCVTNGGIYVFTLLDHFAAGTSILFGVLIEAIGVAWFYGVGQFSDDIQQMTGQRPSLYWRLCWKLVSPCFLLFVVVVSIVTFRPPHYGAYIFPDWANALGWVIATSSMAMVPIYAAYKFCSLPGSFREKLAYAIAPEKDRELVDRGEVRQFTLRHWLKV
Excerpt: as §1, §2, §3, §4
The potency of the compounds of the invention in blocking the DAT function is measured using an uptake assay in a recombinant CHO cell line expressing human DAT (hDAT-CHO). Potency is measured in terms of pIC50 by testing the compounds of invention for the inhibition of [^3H]-dopamine uptake in DAT-CHO cells using a SPA technology in 384 well format.
Briefly, on the days of the experiment hDAT-CHO cells are detached using Versene and added (75,000 cells/mL) to the SPA Mixture, which contains the following components in Assay Buffer (20 mM HEPES, 145 mM NaCl, 5 mM KCl, 2 mM CaCl2, 1 mM MgCl2 and 1 g/L glucose, pH 7.3): 0.02% w/v of Pluronic F127, 2 mg/mL SPA Imaging beads (RPNQ0260, PerkinElmer), 10 μM pargyline and 80 nM of [^3H]-dopamine. […]

human ERG potassium channel (hERG), sequence (Q12809 whole entry): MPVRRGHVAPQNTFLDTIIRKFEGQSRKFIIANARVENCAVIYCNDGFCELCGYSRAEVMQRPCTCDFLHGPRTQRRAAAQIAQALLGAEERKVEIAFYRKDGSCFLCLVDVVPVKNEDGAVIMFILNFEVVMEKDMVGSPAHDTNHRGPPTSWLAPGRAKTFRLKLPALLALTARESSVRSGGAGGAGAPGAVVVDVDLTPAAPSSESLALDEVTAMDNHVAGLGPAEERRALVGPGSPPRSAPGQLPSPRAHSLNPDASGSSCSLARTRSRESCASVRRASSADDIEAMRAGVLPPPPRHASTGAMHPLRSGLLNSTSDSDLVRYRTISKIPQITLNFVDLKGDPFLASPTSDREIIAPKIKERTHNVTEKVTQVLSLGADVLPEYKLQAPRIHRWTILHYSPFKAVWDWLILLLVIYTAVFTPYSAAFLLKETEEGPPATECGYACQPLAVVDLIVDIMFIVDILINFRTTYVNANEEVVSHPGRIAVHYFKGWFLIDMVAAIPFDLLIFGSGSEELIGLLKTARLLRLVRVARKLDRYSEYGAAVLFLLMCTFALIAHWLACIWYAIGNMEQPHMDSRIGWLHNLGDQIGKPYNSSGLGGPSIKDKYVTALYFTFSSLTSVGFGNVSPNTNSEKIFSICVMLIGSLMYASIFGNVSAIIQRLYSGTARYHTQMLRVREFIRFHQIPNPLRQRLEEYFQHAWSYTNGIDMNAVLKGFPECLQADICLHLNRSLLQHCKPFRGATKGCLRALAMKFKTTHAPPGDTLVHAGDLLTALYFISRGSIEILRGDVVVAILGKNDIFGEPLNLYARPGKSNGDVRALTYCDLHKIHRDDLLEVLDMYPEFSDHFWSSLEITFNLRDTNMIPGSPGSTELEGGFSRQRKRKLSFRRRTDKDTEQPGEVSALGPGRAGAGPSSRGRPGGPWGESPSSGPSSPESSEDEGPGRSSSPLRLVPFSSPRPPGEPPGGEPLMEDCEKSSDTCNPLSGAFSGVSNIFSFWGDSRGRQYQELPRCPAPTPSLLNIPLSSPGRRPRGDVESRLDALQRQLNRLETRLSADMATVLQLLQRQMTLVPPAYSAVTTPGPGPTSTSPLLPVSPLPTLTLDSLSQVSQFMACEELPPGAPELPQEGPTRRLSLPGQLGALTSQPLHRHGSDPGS

| Molecule | pIC50 hERG [1] | IC50 [2] [µM] | pIC50 NET [3] | pIC50 DAT [4] | pIC50 SERT [2] |
| --- | --- | --- | --- | --- | --- |
| O=C(NCC1(O)CCN(c2nc(Oc3cccc(F)c3)cc(C(F)(F)F)n2)CC1)c1cn[nH]c1 [Example 27, N-({1-[4-(3-fluorophenoxy)-6-(trifluoromethyl)pyrimidin-2-yl]-4-hydroxypiperidin-4-yl}methyl)-1H-pyrazole-4-carboxamide] | 5.3 | 34.7 | 5.65 | 7.72 |  |
| O=C(NCC1(O)CCN(c2nc(Oc3cccc(F)c3)cc(C(F)(F)F)n2)CC1)c1cnccn1 [Example 28, N-({1-[4-(3-fluorophenoxy)-6-(trifluoromethyl)pyrimidin-2-yl]-4-hydroxypiperidin-4-yl}methyl)pyrazine-2-carboxamide] | 5.5 | > 100 | 5.96 | 7.86 |  |
| NCC(=O)NCC1(O)CCN(c2nc(Oc3cccc(F)c3)cc(C(F)(F)F)n2)CC1 [Example 29, 2-amino-N-({1-[4-(3-fluorophenoxy)-6-(trifluoromethyl)pyrimidin-2-yl]-4-hydroxypiperidin-4-yl}methyl)acetamide] | 5.4 | 19.1 | 5.77 | 8.22 |  |
| NCC1(O)CCN(c2nc(Oc3cccc(F)c3)cc(C(F)(F)F)n2)C1 (stereo not shown) [Example 33, 3-(aminomethyl)-1-[4-(3-fluorophenoxy)-6-(trifluoromethyl)pyrimidin-2-yl]pyrrolidin-3-ol] | 5.8 | 19.1 | 6.52 | 8.86 |  |
| Fc1cccc(Oc2cc(C(F)(F)F)nc(N3CCc4nc[nH]c4C3)n2)c1 [Example 36, 4-(3-fluorophenoxy)-2-{3H,4H,5H,6H,7H-imidazo[4,5-c]pyridin-5-yl}-6-(trifluoromethyl)pyrimidine] | 5.6 | > 100 | 6.01 | 7.90 |  |
| Cl.Fc1cccc(Oc2cc(C(F)(F)F)nc(N3CCC4NCCCC4C3)n2)c1 (stereo not shown) [Example 39, 6-[4-(3-fluorophenoxy)-6-(trifluoromethyl)pyrimidin-2-yl]-decahydro-1,6-naphthyridine hydrochloride] | 6.2 | 3.02 | 7.51 | 8.90 |  |
| (3S or 3R)-3-[(cyclopropylamino)methyl]-1-[4-(3-fluorophenoxy)-6-(trifluoromethyl)pyrimidin-2-yl]pyrrolidin-3-ol [Example 31] | 5.7 |  | 6.86 | 8.75 | 4.46 |
